# Patent US20120094958A1, “QUINOLINES AS INHIBITORS OF FARNESYL PYROPHOSPHATE SYNTHASE” (NOVARTIS AG, priority 2008, published 2012)
# Biological target: T1, Recombinant human Farnesyl Pyrophosphate synthase (FPPS) (Homo sapiens, UniProt P14324)
# T1 construct: made in house
# T1 sequence (P14324 1-353 isoform P14324-2): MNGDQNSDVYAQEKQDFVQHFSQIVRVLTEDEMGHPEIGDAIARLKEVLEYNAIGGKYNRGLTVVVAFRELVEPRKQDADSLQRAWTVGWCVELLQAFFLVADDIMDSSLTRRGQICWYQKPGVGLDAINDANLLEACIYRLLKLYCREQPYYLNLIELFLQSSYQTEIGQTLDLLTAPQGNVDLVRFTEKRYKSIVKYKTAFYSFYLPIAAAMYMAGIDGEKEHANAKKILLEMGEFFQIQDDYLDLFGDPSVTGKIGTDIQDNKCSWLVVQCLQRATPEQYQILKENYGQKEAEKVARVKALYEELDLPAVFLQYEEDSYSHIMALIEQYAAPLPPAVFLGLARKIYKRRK
# Assay: FPPS enzyme assay, scintillation proximity (FlashPlate)
# Format: biochemical
# Conditions: not given
row,Compound,IC50 [µM]
1,O=C(O)c1ccc2cccc(-c3cccc4[nH]ccc34)c2n1 [Example 2.a.ii],6.5
2,"CCOP(=O)(Cc1ccc2cccc(-c3cccc4ccccc34)c2n1)OCC [Example 11.6, (8-Naphthalen-1-yl-quinolin-2-ylmethyl)-phosphonic acid diethyl ester]",> 100

# Same assay, conditions: FlashPlate SPA; GPP 150 nM, [3H]-IPP 150 nM, FPPS 500 pM, 45 minutes at room temperature; highest concentration tested 100 μM; read-out: FPPS IC50
row,Compound,IC50 [µM]
1,"COC(=O)C(CNC(=O)c1ccc2cccc(-c3cccc4ccccc34)c2n1)NS(=O)(=O)NC(=O)OC(C)(C)C (racemic) [Example 13, rac. 2-[(tert-Butoxycarbonylamino-sulfonyl)-amino]-3-[(8-naphthalen-1-yl-quinoline-2-carbonyl)-amino]-propionic acid methyl ester]",13.5
2,"COC(=O)C(CNC(=O)c1ccc2cccc(-c3cccc4ccccc34)c2n1)NS(N)(=O)=O (racemic) [Example 14, rac. 2-[(Amino-sulfonyl)-amino]-3-[(8-naphthalen-1-yl-quinoline-2-carbonyl)amino]-propionic acid methyl ester]",39.7
3,"O=C(O)c1ccc2cccc(-c3cccc4ccccc34)c2n1 [Example 1, 8-Naphthalen-1-quinoline-2-carboxylic acid]",0.52
4,O=C(OCc1ccccc1)c1ccc2cccc(-c3cccc4[nH]c(=O)ccc34)c2n1 [Example 2.g.i],19.7
5,"O=[N+]([O-])c1cc(-c2cccc3ccccc23)c2nc(NCP(=O)(O)O)ccc2c1 [Example 6, [(6-Nitro-8-naphthalen-1-yl-quinolin-2-ylamino)-methyl]-phosphonic acid]",14
6,"CCOP(=O)(CNc1ccc2cc(-c3ccn([Si](C(C)C)(C(C)C)C(C)C)c3)cc(-c3cccc4ccccc34)c2n1)OCC [Example 9.1, {[8-Naphthalen-1-yl-6-(1-triisopropylsilanyl-1H-pyrrol-3-yl)-quinolin-2-ylamino]-methyl}-phosphonic acid diethyl ester]",> 100
7,"CCOP(=O)(CNc1ccc2cc(-c3cccnc3)cc(-c3cccc4ccccc34)c2n1)OCC [Example 10.1, [(8-Naphthalen-1-yl-6-pyridin-3-yl-quinolin-2-ylamino)-methyl]-phosphonic acid diethyl ester]",2.8
8,"O=P(O)(O)Cc1ccc2cccc(-c3cccc4ccccc34)c2n1 [Example 11, (8-Naphthalen-1-yl-quinolin-2-ylmethyl)-phosphonic acid]",7.9
9,"O=C(O)c1ccc2cc(-c3ccc[nH]3)cc(-c3cccc4ccccc34)c2n1 [Example 36, 8-Naphthalen-1-yl-6-pyrrol-2-yl-quinoline-2-carboxylic acid]",0.14
10,"O=P(O)(O)/C=C/c1ccc2cccc(-c3cccc4ccccc34)c2n1 [Example 40, [(E)-2-(8-Naphthalen-1-yl-quinolin-2-yl)-vinyl]-phosphonic acid]",0.007
11,"O=P(O)(O)CCc1ccc2cccc(-c3cccc4ccccc34)c2n1 [Example 41, [2-(8-Naphthalen-1-yl-quinolin-2-yl)-ethyl]-phosphonic acid]",2.3
12,rac. 2-[(amino-sulfonyl)-amino]-3-[(8-naphthalen-1-yl-quinoline-2-carbonyl)-amino]-propionic acid [Example 15.b],54.3

# The remaining lines, values ahead:
row,IC50 [µM],Compound
1,> 100,"O=C(NCC1NS(=O)(=O)NC1=O)c1ccc2cccc(-c3cccc4ccccc34)c2n1 (racemic) [Example 15.a, rac. 8-Naphthalen-1-yl-quinoline-2-carboxylic acid (1,1,4-trioxo-1lambda*6*-[1,2,5]thiadiazolidin-3-ylmethyl)-amide]"
2,> 10,O=C(OCc1ccccc1)c1ccc2cccc(-c3cccc4cnccc34)c2n1 [Example 2.b.i]
3,> 10,O=C(OCc1ccccc1)c1ccc2cccc(-c3cccc4ncccc34)c2n1 [Example 2.c.i]
4,2.7,O=C(O)c1ccc2cccc(-c3cccc4ncccc34)c2n1 [Example 2.c.ii]
5,> 10,O=C(OCc1ccccc1)c1ccc2cccc(-c3cccc4c3CCCC4=O)c2n1 [Example 2.d.i]
6,> 100,O=C(O)c1ccc2cccc(-c3cccc4[nH]c(=O)ccc34)c2n1 [Example 2.g.ii]
7,40.3,"O=C(NCP(=O)(O)O)c1ccc2cccc(-c3cccc4ccccc34)c2n1 [Example 3, {[(8-Naphthalen-1-yl-quinoline-2-carbonyl)-amino]-methyl}-phosphonic acid]"
8,4.1,"O=P(O)(O)CNc1ccc2cccc(-c3cccc4ccccc34)c2n1 [Example 5, [(8-Naphthalen-1-yl-quinolin-2-ylamino)-methyl]-phosphonic acid]"
9,21.5,"O=P(O)(O)CNc1ccc2cc(-c3cc[nH]c3)cc(-c3cccc4ccccc34)c2n1 [Example 9, {[8-Naphthalen-1-yl-6-(1H-pyrrol-3-yl)-quinolin-2-ylamino]-methyl}-phosphonic acid]"
10,2.8,"O=P(O)(O)CNc1ccc2cc(-c3cccnc3)cc(-c3cccc4ccccc34)c2n1 [Example 10, [(8-Naphthalen-1-yl-6-pyridin-3-yl-quinolin-2-ylamino)-methyl]-phosphonic acid]"
11,> 100,"O=P(O)(O)CNCc1ccc2cccc(-c3cccc4ccccc34)c2n1 [Example 12, {[(8-Naphthalen-1-yl-quinolin-2-ylmethyl)-amino]-methyl}-phosphonic acid]"
12,0.34,"O=C(O)c1ccc2cc(Cl)cc(-c3cccc4ccccc34)c2n1 [Example 54, 6-Chloro-8-naphthalen-1-yl-quinoline-2-carboxylic acid]"
